Measured values taken from patent US8975241B2, “Composition for treating and preventing obesity including high water-soluble 2-hydroxypropyl-betacyclodextrin as effective component” (Song Ho Biomed Co., Ltd., priority 2009, dated 2015).

Assays:
Assay type in all cases: in vivo
[1] = test system: normal mouse (ICR); test: Oral glucose tolerance test; details: for Rate of Suppression (%): vs control group
Source text: An oral glucose tolerance test system is to comprehensively predict whether or not a sample has an effect on suppressing a sharp increase of blood sugar induced by intaking glucose after an oral-administration of the sample to a mouse, activities of suppressing glycolysis/glucose absorption, etc.
(§1) A normal mouse [ICR, 6W, Coretech Inc., Korea] was accommodated for 1 week, and then approximately 18˜20 g female with 7 age of the week mouse was used. 6 mice were assigned for one experimental group and starved for 16 hours to use. Hydroxypropyl-β-cyclodextrin (HPBCD) was dissolved in sterilized distilled water to be 20% (W/V) concentration, and then oral-administered in 0.2 mL per 20 g body weight of a mouse. And then, the glucose dissolved in physiological saline was oral-administered to mice in a liquid amount of 10 ml/kg to inject 2 g/kg after 15, 30, 60, and 90 minutes, respectively. The levels of blood sugars were measured just before administering glucose (0 hour), and at 15, 60, and 120 minutes after administering glucose. Blood for measuring blood sugar was collected from orbital venous of the mouse using a capillary tube. The blood sugar in the collected blood was measured using a measuring instrument, […] ALPHA (Boehringer mannheim Co.). The same amount of sterilized distilled water was administered for the control group.

[2] = test system: normal mouse (ICR); test: Oral maltose tolerance test; details: for Rate of Suppression (%): vs control group
Procedure: An oral maltose tolerance test system is to predict whether or not a sample has an effect on suppressing a sharp increase of blood sugar induced by intaking maltose after an oral-administration of the sample to a mouse.
as §1, with “HPBCD” for “Hydroxypropyl-β-cyclodextrin (HPBCD)”, “maltose” for “glucose”, “maltose.” for “glucose.”

[3] = test system: high fat diet-mouse; test: Change in body weight by oral administration in high fat diet-mouse
Procedure: Male C57BL/6J mice (Five age of the week, KRIBB, Korea) were accommodated for 1 week. And then, the weights of the animals were equally divided into 5 animals as one group. While a high fat diet (60% fat kcal) was provided, sterilized distilled water and HPBCDs with 10, 20, and 40% (W/V) were orally administered at three times (Morning, Afternoon, Evening) a day for 5 days in 0.2 ml per 20 g body weight of a mouse at the same time. A change in body weight was measured to all of the animals during the test at one time per day; the fixed amount of feeds was provided at the day of measuring body weight, and then an average amount of intake per an animal (g/mouse/day) was calculated by measuring a residual amount of feeds at the next day.
A body weight was measured by using the same conditions as the above <Example 3>, except that BCDs with 10 and 20% (W/V) concentrations were used instead of HPBCDs with 10, 20, and 40% (W/V) concentrations.
A change in body weight was measured during the test using α-CD instead of HPBCD in the same method as the above <Example 3>.

[4] = test system: mouse model with obesity caused by a high fat diet; test: Change in body weight by autonomically drinking in mouse model with obesity caused by high fat diet
[5] = 20% (W/V) oral (−)15 min. before glucose 2 g/kg
[6] = 20% (W/V) oral (−)30 min. before glucose 2 g/kg
[7] = 20% (W/V) oral (−)60 min. before glucose 2 g/kg
[8] = 20% (W/V) oral (−)90 min. before glucose 2 g/kg
[9] = 20% (W/V) oral (−)15 min. before maltose 2 g/kg
[10] = 20% (W/V) oral (−)30 min. before maltose 2 g/kg
[11] = 20% (W/V) oral (−)60 min. before maltose 2 g/kg
[12] = 20% (W/V) oral (−)90 min. before maltose 2 g/kg
[13] = 10, 15, 20% (W/V) autonomically drinking

Substance: 2-hydroxypropyl-β-cyclodextrin [HPBCD]
- Increasing Amount of Blood Sugar (15 min.~0 hour) [1, 5]: 190.0 mg/dL
- Level of Blood Sugar Before and After Administration of D-glucose (mg/dl), 0 Hour [1, 5]: 74.8 mg/dL
- Level of Blood Sugar Before and After Administration of D-glucose (mg/dl), 15 min. [1, 5]: 264.8 mg/dL
- Rate of Suppression (%) [1, 5]: 19.7%
- Increasing Amount of Blood Sugar (15 min.~0 hour) [1, 6]: 191.0 mg/dL
- Level of Blood Sugar Before and After Administration of D-glucose (mg/dl), 0 Hour [1, 6]: 83.3 mg/dL
- Level of Blood Sugar Before and After Administration of D-glucose (mg/dl), 15 min. [1, 6]: 274.3 mg/dL
- Rate of Suppression (%) [1, 6]: 19.3%
- Increasing Amount of Blood Sugar (15 min.~0 hour) [1, 7]: 184.5 mg/dL
- Level of Blood Sugar Before and After Administration of D-glucose (mg/dl), 0 Hour [1, 7]: 83.3 mg/dL
- Level of Blood Sugar Before and After Administration of D-glucose (mg/dl), 15 min. [1, 7]: 267.8 mg/dL
- Rate of Suppression (%) [1, 7]: 22.0%
- Increasing Amount of Blood Sugar (15 min.~0 hour) [1, 8]: 180.7 mg/dL
- Level of Blood Sugar Before and After Administration of D-glucose (mg/dl), 0 Hour [1, 8]: 78.3 mg/dL
- Level of Blood Sugar Before and After Administration of D-glucose (mg/dl), 15 min. [1, 8]: 259.0 mg/dL
- Rate of Suppression (%) [1, 8]: 23.7%
- blood sugar caused by intaking glucose suppressed as compared with the control group ([1]; oral, all pre-treatment times): 19˜24%
- Increasing Amount of Blood Sugar (15 min.~0 hour) [2, 9]: 189.7 mg/dL
- Level of Blood Sugar Before and After Administration of Maltose (mg/dl), 0 hour [2, 9]: 83.2 mg/dL
- Level of Blood Sugar Before and After Administration of Maltose (mg/dl), 15 min. [2, 9]: 272.8 mg/dL
- Rate of Suppression (%) [2, 9]: 38.6%
- Increasing Amount of Blood Sugar (15 min.~0 hour) [2, 10]: 164.8 mg/dL
- Level of Blood Sugar Before and After Administration of Maltose (mg/dl), 0 hour [2, 10]: 87.2 mg/dL
- Level of Blood Sugar Before and After Administration of Maltose (mg/dl), 15 min. [2, 10]: 252.0 mg/dL
- Rate of Suppression (%) [2, 10]: 46.7%
- Increasing Amount of Blood Sugar (15 min.~0 hour) [2, 11]: 171.3 mg/dL
- Level of Blood Sugar Before and After Administration of Maltose (mg/dl), 0 hour [2, 11]: 86.2 mg/dL
- Level of Blood Sugar Before and After Administration of Maltose (mg/dl), 15 min. [2, 11]: 257.5 mg/dL
- Rate of Suppression (%) [2, 11]: 44.6%
- Increasing Amount of Blood Sugar (15 min.~0 hour) [2, 12]: 186.2 mg/dL
- Level of Blood Sugar Before and After Administration of Maltose (mg/dl), 0 hour [2, 12]: 77.7 mg/dL
- Level of Blood Sugar Before and After Administration of Maltose (mg/dl), 15 min. [2, 12]: 264.2 mg/dL
- Rate of Suppression (%) [2, 12]: 39.6%
- blood sugar caused by intaking maltose suppressed as compared with the control group ([2]; oral, all pre-treatment times): 38˜47%
- Body weight as percent of initial body weight ([3]; 10% (w/v) oral three times a day, 0 Day): 100.0 ± 0.0%
- Body weight as percent of initial body weight ([3]; 10% (w/v) oral three times a day, 1 Day): 99.3 ± 0.9 %
- Body weight as percent of initial body weight ([3]; 10% (w/v) oral three times a day, 2 Day): 98.5 ± 1.3 %
- Body weight as percent of initial body weight ([3]; 10% (w/v) oral three times a day, 3 Day): 98.4 ± 1.2 %
- Body weight as percent of initial body weight ([3]; 10% (w/v) oral three times a day, 4 Day): 98.3 ± 1.2 %
- Body weight as percent of initial body weight ([3]; 10% (w/v) oral three times a day, 5 Day): 98.7 ± 2.0 %
- body weight as compared with the control group ([3]; 10, 20, 40% (W/V) oral): decreased depending on the concentrations
- body weight as compared with the initial body weight ([3]; 10, 20, 40% (W/V) oral): significantly decreased
- Body weight as percent of initial body weight ([3]; 20% (w/v) oral three times a day, 0 Day): 100.0 ± 0.0%
- Body weight as percent of initial body weight ([3]; 20% (w/v) oral three times a day, 1 Day): 97.1 ± 1.0 %
- Body weight as percent of initial body weight ([3]; 20% (w/v) oral three times a day, 2 Day): 95.6 ± 1.1 %
- Body weight as percent of initial body weight ([3]; 20% (w/v) oral three times a day, 3 Day): 95.8 ± 1.3 %
- Body weight as percent of initial body weight ([3]; 20% (w/v) oral three times a day, 4 Day): 96.6 ± 1.0 %
- Body weight as percent of initial body weight ([3]; 20% (w/v) oral three times a day, 5 Day): 95.7 ± 1.5 %
- Body weight as percent of initial body weight ([3]; 40% (w/v) oral three times a day, 0 Day): 100.0 ± 0.0%
- Body weight as percent of initial body weight ([3]; 40% (w/v) oral three times a day, 1 Day): 95.0 ± 2.2 %
- Body weight as percent of initial body weight ([3]; 40% (w/v) oral three times a day, 2 Day): 93.1 ± 3.4 %
- Body weight as percent of initial body weight ([3]; 40% (w/v) oral three times a day, 3 Day): 93.5 ± 3.4 %
- Body weight as percent of initial body weight ([3]; 40% (w/v) oral three times a day, 4 Day): 94.3 ± 2.9 %
- Body weight as percent of initial body weight ([3]; 40% (w/v) oral three times a day, 5 Day): 94.1 ± 1.9 %
- Change in body weight (%) ([4]; 10% (w/v) in drinking water, 0 Day): 100.0 ± 0.0%
- Change in body weight (%) ([4]; 10% (w/v) in drinking water, 1 Day): 98.1 ± 0.2%
- Change in body weight (%) ([4]; 10% (w/v) in drinking water, 2 Day): 97.6 ± 0.8 %
- Change in body weight (%) ([4]; 10% (w/v) in drinking water, 3 Day): 94.6 ± 0.7 %
- body weight as compared with the distilled water-drinking control group [4, 13]: decreased depending on the concentration
- body weight as compared with the initial body weight [4, 13]: significantly decreased
- Change in body weight (%) ([4]; 15% (w/v) in drinking water, 0 Day): 100.0 ± 0.0%
- Change in body weight (%) ([4]; 15% (w/v) in drinking water, 2 Day): 94.0 ± 1.3 %
- Change in body weight (%) ([4]; 20% (w/v) in drinking water, 0 Day): 100.0 ± 0.0%
- Change in body weight (%) ([4]; 20% (w/v) in drinking water, 1 Day): 100.0 ± 0.0%
- Change in body weight (%) ([4]; 20% (w/v) in drinking water, 2 Day): 89.1 ± 6.9 %
- Change in body weight (%) ([4]; 20% (w/v) in drinking water, 3 Day): 85.4 ± 8.1 %
